Here are results for one substance from patent US9994533B2, “Method of preparing ATG's analogue, and the application of ATG and it's analogue” (Longhua Hospital Shanghai University of Traditional Chinese …, priority 2016, dated 2018).

The target in this experiment is T1, PP2A (Homo sapiens, UniProt P62714).
T1 construct: endogenous in cells; host or cells: 293T
Nature of the experiment: PP2A activity in 293T cells stimulated with ATG analogues. Type of experiment: cell-based. Conditions: 10 μM, DMSO as reference, FIG. 11. On the procedure:
The biological activities of the three compounds were determined by measuring the downstream PP2A activity and the degree of phosphorylation of NF-kB. […] The concentrations of ATG and the three new compounds were 10 μM.

T1 sequence (P62714 whole entry): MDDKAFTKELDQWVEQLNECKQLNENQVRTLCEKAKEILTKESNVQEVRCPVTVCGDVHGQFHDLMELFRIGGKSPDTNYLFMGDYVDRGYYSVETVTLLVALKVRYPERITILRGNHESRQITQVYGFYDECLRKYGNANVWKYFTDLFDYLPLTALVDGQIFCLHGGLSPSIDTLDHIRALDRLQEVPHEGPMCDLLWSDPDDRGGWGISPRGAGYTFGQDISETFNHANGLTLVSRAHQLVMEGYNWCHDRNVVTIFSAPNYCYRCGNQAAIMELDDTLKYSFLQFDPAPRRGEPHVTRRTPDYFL

As to “Potassium trifluoro (4-(5-(3,4,5-trimethoxyphenyl)-1,2,4-oxadiazol-3-yl) phenyl) borate [BT282]”, the “effect on PP2A activity relative to native ATG” value is recorded as “higher activity to PP2A than natural ATG”.
